# Results published in patent US9562044B2, “2-acylaminothiazole derivative or salt thereof” (ASTELLAS PHARMA INC., priority 2013, dated 2017).
# Where a name gives a salt, the structure may show the parent alone.
# Target: T1, human c-Mpl receptor (Homo sapiens, UniProt P40238)
# T1 construct: expressed in transfected cells
# T1 sequence (P40238 26-635): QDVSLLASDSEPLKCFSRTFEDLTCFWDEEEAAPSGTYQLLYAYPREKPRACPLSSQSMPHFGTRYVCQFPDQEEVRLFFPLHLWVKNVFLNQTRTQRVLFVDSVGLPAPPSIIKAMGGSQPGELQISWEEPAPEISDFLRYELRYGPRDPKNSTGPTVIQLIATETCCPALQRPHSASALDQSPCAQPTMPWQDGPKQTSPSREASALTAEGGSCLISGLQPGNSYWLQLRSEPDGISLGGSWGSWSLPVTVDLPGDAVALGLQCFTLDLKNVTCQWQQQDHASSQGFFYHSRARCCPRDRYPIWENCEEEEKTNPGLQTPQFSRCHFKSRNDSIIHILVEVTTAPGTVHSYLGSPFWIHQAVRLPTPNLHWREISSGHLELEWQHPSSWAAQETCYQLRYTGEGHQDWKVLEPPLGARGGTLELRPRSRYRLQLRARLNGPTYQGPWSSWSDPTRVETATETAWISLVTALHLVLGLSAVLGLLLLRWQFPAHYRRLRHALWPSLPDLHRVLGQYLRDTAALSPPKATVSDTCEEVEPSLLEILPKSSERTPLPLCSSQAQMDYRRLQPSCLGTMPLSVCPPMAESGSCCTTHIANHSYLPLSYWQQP
# Test: Human c-Mpl-introduced Ba/F3 cell proliferative activity
# Assay type: cell-based
# Conditions: concentration showing 30% proliferation; 100% = positive control at 1 μM
# Description: Evaluation of Human c-Mpl-Introduced Ba/F3 Cell Proliferative Activity
# The human c-Mpl-introduced Ba/F3 cell proliferative activity was measured by the following method.
# As a positive control, 1-(5-{[4-(4-chloro-2-thienyl)-5-{[(2R)-2-methylpyrrolidin-1-yl]methyl}-1,3-thiazol-2-yl]carbamoyl}-3-fluoropyridin-2-yl)piperidine-4-carboxylic acid hydrochloride, which is disclosed as Example 315 in Patent Document 1 and represented by the formula A1, was used. It is known that the compound has a good human c-Mpl-introduced Ba/F3 cell proliferative activity as disclosed in Table 1 of Patent Document 1.
# a) Construction of Human c-Mpl Receptor Expression Vector
# A human c-mpl receptor gene (GenBank Accession No. M90102.1) was introduced into an expression vector pEF-BOS (Nucleic Acids Res. 18, 5322, 1990).
# b) Construction of Cell Stably Expressing Human c-Mpl Receptor
# A human c-Mpl receptor expression vector was introduced into a Ba/F3 cell (RIKEN BRC: RCB0805). For the introduction, an electroporation method was used. pEF-BOS-c-mpl (10 μg), pSV2bsr (1 μg, Kaken Pharmaceutical Co., Ltd.) and 1×10^7 Ba/F3 cells were put into a cuvette having a gap width of 0.4 cm, and electroporated under the conditions of 1.5 kV (25 μF) by a Gene Pulser (registered trademark) (BioRad). The cells were cultured in an RPMI-1640 culture medium containing 0.5% WEHI conditioned media (BD Biosciences) and 10% fetal bovine serum for 3 days, and then cultured in an RPMI-1640 culture medium, to which 10 μg/mL blasticidin had been further added, for 30 days to acquire a drug-resistant clone.
# c) Measurement of Cell Proliferative Activity
# The cells obtained in b) above was cultured in an RPMI-1640 culture medium containing 0.5% WEHI conditioned media, 10% fetal bovine serum, and used. On the day before the experiment, test substances (final concentration of 100 nM to 10 μM) which had been dissolved in a culture medium for assay (RPMI-1640 culture medium containing 10% fetal bovine serum) were added to a 384-well plate (Lot No. 781185, Greiner Bio-One). The cells in the culture medium that had been replaced with a culture medium for assay were dispensed into a 384-well plate, to which the test substances had been added in advance, to 1×10^4 cells/well, and cultured at 37° C. and 5% CO2 overnight. On the experiment day, a solution of a Cell Counting Kit (Dojindo Laboratories) was added to each well of the 384-well plate and cultured at 37° C. and 5% CO2 for about 5 hours. Thereafter, the absorbance (absorption wavelength of 450 nm) of each well was measured using Safire^2™ (TECAN) and used as the index of the number of cells. Further, as a negative control, a well in which the test substance had been not added was prepared.
# The absorbance of the well without the test substance was set to 0%, and the absorbance in the case where the positive control was added at a final concentration of 1 μM was set to 100%. From the absorbance in the case where the test substance had been added, a cell proliferation rate (%) was calculated. From the obtained results, the test substance concentration showing 30% proliferation was calculated as an EC30 value by a logistic regression method.
row,Compound,Test Example 2 EC30
1,CC[C@@H]1CCCN1Cc1sc(NC(=O)c2cnc(N3CCC(C(=O)O)CC3)cn2)nc1-c1cc(F)cc(C(F)(F)F)c1 [Example 115],>10 µM
2,"C[C@@H]1CCCN1Cc1sc(NC(=O)c2cnc(N3CCC(C(=O)O)CC3)cn2)nc1-c1cc(Cl)cs1 [Example 4, 1-(5-{[4-(4-chloro-2-thienyl)-5-{[(2R)-2-methylpyrrolidin-1-yl]methyl}-1,3-thiazol-2-yl]carbamoyl}pyrazin-2-yl)piperidine-4-carboxylic acid dihydrochloride]",0.35 µM
3,CC[C@@H]1CCCN1Cc1sc(NC(=O)c2cnc(N3CCC(C(=O)O)CC3)cn2)nc1-c1ccc(OC)c(C(F)(F)F)c1 [Example 156],>10 µM
